Measured values: US20250000843A1, “LIGNAN-INSPIRED COMPOUNDS, METHODS OF MAKING, AND USING THEREOF” (IOWAIBO, INC., priority 2023, published 2025)

Tests used:
[1] = test system: MCF7 (human breast cancer cell line); assay: MTT toxicity assay in MCF7 breast cancer cells; format: cell-based
Protocol: Toxicity of the dibenzyl butyl lactone derivative (3-[(3,4-dimethoxyphenyl)cyclopentyl], 4-[(3-hydroxyphenol)methyl]oxolan-2-one) in breast cancer cells was evaluated using MTT assay. The MTT toxicity test is a colorimetric assay to measure cells' metabolic activity by serving as a substrate of cellular enzymes that reduce the tetrazolium orange dye, MTT (3-(4,5-Dimethylthiazol-2-yl)-2,5-diphenyltetrazolium bromide) to its insoluble, formazan, giving a purple color. The rate of conversion is directly proportional to cells' mitochondrial metabolic activity via NAD (P) H-dependent cellular oxidoreductase enzymes and serves as a surrogate marker of cell viability.
Cultures of MCF7 (human breast cancer cell line) working stock (5 passages) were established under standard culture conditions in Eagle's minimum essential medium (EMEM). EMEM was supplemented with 10% fetal bovine serum (FBS), 2 mM Glutamine and Pen/Strep, and Penicillin 0.01 mg/ml.
Cells previously expanded were seeded in 96 well plates at 1.9×10^5 and 9.6×10^4 cells/plate for 24- and 72-hours treatment respectively. This concentration is known to show the best window for the MTT assay, with better sensitivity and low variability.
5 mg of powdered enterolactone, dibenzyl butyl lactone derivative enantiomer A, and dibenzyl butyl lactone derivative enantiomer B were dissolved in 500 μl of DMSO at room temperature. Eight-point curves, ⅓ dilutions (highest concentration 125 μM), were prepared.
Twenty-four hours following the seeding process, the cells were washed once with phosphate buffered saline (PBS) and treated with the respective compounds in cell culture media. Each condition was tested in triplicates. For positive and negative controls, 8 mM methyl methane sulfonate (MMS) and DMSO 100% were used respectively.
Following compound addition, the plates were incubated for 24 and 72 hours. After the treatment period, cells were washed twice with PBS and media was replaced with MTT reagent at 0.5 mg/ml in Dulbecco's modified Eagle medium (DMEM) without phenol red. The plates were gently shaken and incubated for 4 hours. After the incubation the medium was removed and replaced by DMSO. The plates were gently shaken to solubilize the formazan crystals. Absorbance was measured using an Envision multiplate reader at a wavelength of 570 nm.
Eight serial dilutions were prepared (125.00, 41.67, 13.89, 4.63, 1.54, 0.51, 0.17 and 0.06 µM to evaluate the compounds (in triplicate). MTT results showing cell death values above 20% are considered as having a significant toxic effect.
MTT assay results are shown in Tables 2-7 and expressed as the percentage of cell death after treatment.

[2] = test system: human induced pluripotent stem (iPS) cells; format: cell-based; conditions: human
Protocol: The dibenzyl butyl lactone derivative enantiomer A and B were compared to enterolactone and tested to determine toxicity using a human pluripotent stem (hPS) cell-based assay that predicts the developmental toxicity potential. […] The current study was conducted using human induced pluripotent stem (iPS) cells.
The impact of test article exposure on ornithine and cystine metabolism in human induced pluripotent stem (iPS) cells was measured for three test articles (dibenzyl butyl lactone derivative enantiomer A, dibenzyl butyl lactone derivative enantiomer B, and enterolactone) and prediction of the potential for developmental toxicity was made through application of the hPS cell-based assay. Exposure spanned a range of eight treatment levels per test article ranging from 0.03-100 μM.
The observed decrease in the o/c ratio following exposure to each test article is indicative of the potential for developmental toxicity and/or embryo lethality in vivo at or above the dTP concentration. FIGS. 15A-C show the o/c ratio of dibenzyl butyl lactone derivative enantiomer A (FIG. 15A), dibenzyl butyl lactone derivative enantiomer B (FIG. 15B), and (+/−) enterolactone (FIG. 15C). The graphs in FIGS. 15A-C show the cell viability and o/c/ ratio over concentrations of 0.03-100 μM with the straight horizontal line illustrating the developmental toxicity threshold of 0.85.

## O=C1OCC(Cc2ccc3c(c2)OCO3)/C1=C\c1cccc(O)c1 (single isomer, unassigned) [Enantiomer B, 3-[(3,4-dimethoxyphenyl)cyclopentyl], 4-[(3-hydroxyphenol)methyl]oxolan-2-one]
[1]; MCF7, 24 hours, 0.06 μM
  Cell death #1 (%): −90.03%
  Cell death #2 (%): −85.75%
  Cell death #3 (%): −79.34%
  Cell death (%) MEAN: −85.04%
[1]; MCF7, 24 hours, 0.17 μM
  Cell death #1 (%): −146.30%
  Cell death #2 (%): −115.67%
  Cell death #3 (%): −91.45%
  Cell death (%) MEAN: −117.81%
[1]; MCF7, 24 hours, 0.51 μM
  Cell death #1 (%): −124.22%
  Cell death #2 (%): −120.66%
  Cell death #3 (%): −95.01%
  Cell death (%) MEAN: −113.30%
[1]; MCF7, 24 hours, 1.54 μM
  Cell death #1 (%): −115.67%
  Cell death #2 (%): −156.99%
  Cell death #3 (%): −114.96%
  Cell death (%) MEAN: −129.21%
[1]; MCF7, 24 hours, 4.63 μM
  Cell death #1 (%): −134.19%
  Cell death #2 (%): −163.40%
  Cell death #3 (%): −138.47%
  Cell death (%) MEAN: −145.35%
[1]; MCF7, 24 hours, 13.89 μM
  Cell death #1 (%): −132.06%
  Cell death #2 (%): −174.09%
  Cell death #3 (%): −134.91%
  Cell death (%) MEAN: −147.02%
[1]; MCF7, 24 hours, 41.67 μM
  Cell death #1 (%): −211.84%
  Cell death #2 (%): −192.61%
  Cell death #3 (%): −204.01%
  Cell death (%) MEAN: −202.82%
[1]; MCF7, 24 hours, 125.00 μM
  Cell death #1 (%): 63.85%
  Cell death #2 (%): 47.46%
  Cell death #3 (%): 63.13%
  Cell death (%) MEAN: 58.15%
[1]; MCF7, 72 hours, 0.06 μM
  Cell death #1 (%): −31.84%
  Cell death #2 (%): −27.21%
  Cell death #3 (%): −56.05%
  Cell death (%) MEAN: −38.37%
[1]; MCF7, 72 hours, 0.17 μM
  Cell death #1 (%): −74.60%
  Cell death #2 (%): −57.08%
  Cell death #3 (%): −52.45%
  Cell death (%) MEAN: −61.38%
[1]; MCF7, 72 hours, 0.51 μM
  Cell death #1 (%): −28.49%
  Cell death #2 (%): −52.45%
  Cell death #3 (%): −56.31%
  Cell death (%) MEAN: −45.75%
[1]; MCF7, 72 hours, 1.54 μM
  Cell death #1 (%): −22.57%
  Cell death #2 (%): −37.77%
  Cell death #3 (%): −19.48%
  Cell death (%) MEAN: −26.60%
[1]; MCF7, 72 hours, 4.63 μM
  Cell death #1 (%): −32.87%
  Cell death #2 (%): −34.42%
  Cell death #3 (%): −30.04%
  Cell death (%) MEAN: −32.44%
[1]; MCF7, 72 hours, 13.89 μM
  Cell death #1 (%): −23.34%
  Cell death #2 (%): −30.55%
  Cell death #3 (%): −9.69%
  Cell death (%) MEAN: −21.20%
[1]; MCF7, 72 hours, 41.67 μM
  Cell death #1 (%): −18.96%
  Cell death #2 (%): −6.08%
  Cell death #3 (%): 17.10%
  Cell death (%) MEAN: −2.65%
[1]; MCF7, 72 hours, 125.00 μM
  Cell death #1 (%): 99.00%
  Cell death #2 (%): 99.52%
  Cell death #3 (%): 99.00%
  Cell death (%) MEAN: 99.17%
[1]; MCF7, at higher concentrations, 24 hours and 72 hours post-treatment
  breast cancer cell death as compared to enterolactone: increased breast cancer cell death as compared to enterolactone
[2]
  TP Concentration: 49.8 µM
  TP concentration, fold lower than (+/−) enterolactone TP: 4-6 fold
  dTP Concentration: 15.1 µM
  dTP and TP concentrations compared with anti-cancer drugs tested in this assay: higher than >90% of the anti-cancer drugs
  similarity of dTP concentrations between all three compounds: ≤ 2 fold
